Assay results reported in the NIST ThermoML archive (doi:10.1016/j.jct.2019.02.025).
± gives the expanded uncertainty stated by the source.

Experiments:
[1] = for mass density / kinematic viscosity: 101.33 kPa, Liquid; for mass density: Vibrating tube method; for surface tension liquid-gas / kinematic viscosity: Surface laser light scattering (SLLS)
[2] = refractive index (Na D-line) (dimensionless); details: 101.33 kPa, Liquid, Standard Abbe refractometry

CCCCCCCCCC(=O)OC [methyl decanoate]
Details | kinematic viscosity [m2/s] | mass density [kg/m3] | refractive index | surface tension liquid-gas [mN/m]
[1], 293.15 K | – | 872.34 ± 1.8 | – | –
[1], 298.14 K | 2.09e-06 ± 7.4e-08 | – | – | 24.73 ± 0.67
[1], 303.15 K | – | 864.01 ± 1.7 | – | –
[1], 313.15 K | – | 855.73 ± 1.7 | – | –
[1], 323.15 K | – | 847.47 ± 1.7 | – | –
[1], 323.16 K | 1.48e-06 ± 4.3e-08 | – | – | 23.28 ± 0.32
[1], 333.15 K | – | 839.2 ± 1.7 | – | –
[1], 343.15 K | – | 830.94 ± 1.7 | – | –
[1], 348.16 K | 1.13e-06 ± 4e-08 | – | – | 21.96 ± 0.27
[1], 353.15 K | – | 822.61 ± 1.7 | – | –
[1], 363.15 K | – | 814.38 ± 1.6 | – | –
[1], 373.15 K | – | 806.06 ± 1.6 | – | –
[1], 373.17 K | 8.74e-07 ± 3.1e-08 | – | – | 20.49 ± 0.29
[1], 383.15 K | – | 797.7 ± 1.6 | – | –
[1], 393.15 K | – | 789.29 ± 1.6 | – | –
[1], 398.08 K | 6.87e-07 ± 2.4e-08 | – | – | 18.81 ± 0.22
[1], 403.15 K | – | 780.82 ± 1.6 | – | –
[1], 413.15 K | – | 771.74 ± 1.6 | – | –
[1], 422.99 K | 5.61e-07 ± 2.1e-08 | – | – | 16.83 ± 0.22
[1], 423.15 K | – | 763.71 ± 1.5 | – | –
[1], 433.15 K | – | 755 ± 1.5 | – | –
[1], 443.15 K | – | 746.3 ± 1.5 | – | –
[1], 447.95 K | 4.52e-07 ± 2.1e-08 | – | – | 14.87 ± 0.19
[1], 453.15 K | – | 737.39 ± 1.5 | – | –
[2], 278.15 K | – | – | 1.43209 ± 0.00052 | –
[2], 283.15 K | – | – | 1.42995 ± 0.00052 | –
[2], 288.15 K | – | – | 1.42783 ± 0.00052 | –
[2], 293.15 K | – | – | 1.42571 ± 0.00052 | –
[2], 298.15 K | – | – | 1.42359 ± 0.00052 | –
[2], 303.15 K | – | – | 1.42148 ± 0.00052 | –
[2], 308.15 K | – | – | 1.41938 ± 0.00052 | –
[2], 313.15 K | – | – | 1.41726 ± 0.00052 | –
[2], 318.15 K | – | – | 1.4151 ± 0.00052 | –
[2], 323.15 K | – | – | 1.41295 ± 0.00052 | –
[2], 328.15 K | – | – | 1.41083 ± 0.00052 | –
[2], 333.15 K | – | – | 1.40871 ± 0.00052 | –
[2], 338.15 K | – | – | 1.40659 ± 0.00052 | –
[2], 343.15 K | – | – | 1.40448 ± 0.00052 | –
[2], 348.15 K | – | – | 1.40237 ± 0.00052 | –
[2], 353.15 K | – | – | 1.40028 ± 0.00052 | –
[2], 358.15 K | – | – | 1.39819 ± 0.00052 | –

CCCCCCCCCCCC(=O)OC [methyl dodecanoate]
Details | kinematic viscosity [m2/s] | mass density [kg/m3] | refractive index | surface tension liquid-gas [mN/m]
[1], 293.15 K | – | 869.26 ± 1.7 | – | –
[1], 298.14 K | 2.81e-06 ± 1.6e-07 | – | – | 23.49 ± 1.1
[1], 303.15 K | – | 861.25 ± 1.7 | – | –
[1], 313.15 K | – | 853.32 ± 1.7 | – | –
[1], 323.15 K | – | 845.42 ± 1.7 | – | –
[1], 323.16 K | 1.9e-06 ± 7.6e-08 | – | – | 22.02 ± 0.79
[1], 333.15 K | – | 837.53 ± 1.7 | – | –
[1], 343.15 K | – | 829.63 ± 1.7 | – | –
[1], 348.15 K | 1.44e-06 ± 4.3e-08 | – | – | 21.12 ± 0.27
[1], 353.15 K | – | 820.84 ± 1.6 | – | –
[1], 363.15 K | – | 813.94 ± 1.6 | – | –
[1], 373.15 K | – | 806.11 ± 1.6 | – | –
[1], 373.17 K | 1.14e-06 ± 3.4e-08 | – | – | 19.82 ± 0.38
[1], 383.15 K | – | 798.22 ± 1.6 | – | –
[1], 393.15 K | – | 790.34 ± 1.6 | – | –
[1], 398.27 K | 9.1e-07 ± 3.2e-08 | – | – | 18.66 ± 0.26
[1], 403.15 K | – | 782.4 ± 1.6 | – | –
[1], 413.15 K | – | 774.39 ± 1.6 | – | –
[1], 423.15 K | – | 766.34 ± 1.5 | – | –
[1], 423.25 K | 7.36e-07 ± 2.7e-08 | – | – | 17.48 ± 0.12
[1], 433.15 K | – | 758.26 ± 1.5 | – | –
[1], 443.15 K | – | 750.06 ± 1.5 | – | –
[1], 448.25 K | 5.99e-07 ± 2.2e-08 | – | – | 15.99 ± 0.09
[1], 453.15 K | – | 741.94 ± 1.5 | – | –
[2], 278.15 K | – | – | 1.43836 ± 0.0005 | –
[2], 283.15 K | – | – | 1.43629 ± 0.0005 | –
[2], 288.15 K | – | – | 1.43422 ± 0.0005 | –
[2], 293.15 K | – | – | 1.43216 ± 0.0005 | –
[2], 298.15 K | – | – | 1.43009 ± 0.0005 | –
[2], 303.15 K | – | – | 1.42802 ± 0.0005 | –
[2], 308.15 K | – | – | 1.42594 ± 0.0005 | –
[2], 313.15 K | – | – | 1.42383 ± 0.0005 | –
[2], 318.15 K | – | – | 1.42171 ± 0.0005 | –
[2], 323.15 K | – | – | 1.41959 ± 0.0005 | –
[2], 328.15 K | – | – | 1.4175 ± 0.0005 | –
[2], 333.15 K | – | – | 1.41542 ± 0.0005 | –
[2], 338.15 K | – | – | 1.41334 ± 0.0005 | –
[2], 343.15 K | – | – | 1.41127 ± 0.0005 | –
[2], 348.15 K | – | – | 1.40922 ± 0.0005 | –
[2], 353.15 K | – | – | 1.40717 ± 0.0005 | –
[2], 358.15 K | – | – | 1.40513 ± 0.0005 | –

CCCCCCC(=O)OC [methyl heptanoate]
Details | kinematic viscosity [m2/s] | mass density [kg/m3] | refractive index | surface tension liquid-gas [mN/m]
[1], 293.15 K | – | 879.29 ± 1.8 | – | –
[1], 298.13 K | 1.22e-06 ± 3.8e-08 | – | – | 24.75 ± 0.52
[1], 303.15 K | – | 870.75 ± 1.8 | – | –
[1], 313.15 K | – | 861.6 ± 1.8 | – | –
[1], 323.15 K | – | 852.39 ± 1.7 | – | –
[1], 323.17 K | 8.92e-07 ± 2.9e-08 | – | – | 23 ± 0.35
[1], 333.15 K | – | 843.15 ± 1.7 | – | –
[1], 343.15 K | – | 833.87 ± 1.7 | – | –
[1], 348.19 K | 6.79e-07 ± 2.4e-08 | – | – | 21.02 ± 0.31
[1], 353.15 K | – | 824.55 ± 1.7 | – | –
[1], 363.15 K | – | 814.17 ± 1.6 | – | –
[1], 373.15 K | – | 805.69 ± 1.6 | – | –
[1], 373.26 K | 5.32e-07 ± 2e-08 | – | – | 18.72 ± 0.17
[1], 383.15 K | – | 796.11 ± 1.6 | – | –
[1], 393.15 K | – | 786.44 ± 1.6 | – | –
[1], 398.29 K | 4.34e-07 ± 1.8e-08 | – | – | 16.66 ± 0.12
[1], 403.15 K | – | 776.63 ± 1.6 | – | –
[1], 413.15 K | – | 766.7 ± 1.6 | – | –
[1], 423.15 K | – | 756.62 ± 1.5 | – | –
[1], 423.26 K | 3.66e-07 ± 1.6e-08 | – | – | 14.43 ± 0.13
[1], 433.15 K | – | 746.31 ± 1.5 | – | –
[1], 448.29 K | 3.14e-07 ± 1.5e-08 | – | – | 12.33 ± 0.12
[2], 278.15 K | – | – | 1.41865 ± 0.00055 | –
[2], 283.15 K | – | – | 1.41643 ± 0.00055 | –
[2], 288.15 K | – | – | 1.41421 ± 0.00055 | –
[2], 293.15 K | – | – | 1.41199 ± 0.00055 | –
[2], 298.15 K | – | – | 1.40976 ± 0.00055 | –
[2], 303.15 K | – | – | 1.40753 ± 0.00055 | –
[2], 308.15 K | – | – | 1.4053 ± 0.00055 | –
[2], 313.15 K | – | – | 1.40301 ± 0.00055 | –
[2], 318.15 K | – | – | 1.4007 ± 0.00055 | –
[2], 323.15 K | – | – | 1.39841 ± 0.00055 | –
[2], 328.15 K | – | – | 1.39614 ± 0.00055 | –
[2], 333.15 K | – | – | 1.39389 ± 0.00055 | –
[2], 338.15 K | – | – | 1.39167 ± 0.00055 | –
[2], 343.15 K | – | – | 1.38946 ± 0.00055 | –
[2], 348.15 K | – | – | 1.38724 ± 0.00055 | –
[2], 353.15 K | – | – | 1.38501 ± 0.00055 | –
[2], 358.15 K | – | – | 1.38276 ± 0.00055 | –
